From US8889902B2, “Acetylsalicylic acid salts” (priority 2009, dated 2014)

Key:
[1] = system: FeCl3 induced carotid artery thrombosis; experiment: FeCl3 induced carotid artery thrombosis, time till occlusion; assay type: in vivo, Wistar rats; details: for Time till occlusion, %: control = 100
From the text: We chose an experimental thrombosis model based on rat arterial thrombosis induced by FeCl3 (Kurz K et al, Thromb Res 1990, 60:269-280. Wang X, Xu L, Thromb Res 2005,115:95-100). Tissue damage initiated by iron-mediated chemical oxidation predisposes the injured area to platelet adherence and aggregation followed by coagulation activation and fibrin deposition. Male Wistar rats with mass 350-420 g were used in experiments. Animals were kept in groups of 7-8 in adequate cages in climatized room at 22±1° C., relative humidity 60±5% and 12/12-hour light/darkness cycle with free access to feed and water. All experiments were carried out in accordance with the European Community Council's Directive of 24 Nov. 1986 (86/609/EEC) relative to experimental animal care. All efforts were made to minimize animal suffering and to reduce the number of animals used. Rats were randomly divided into various experimental groups, each consisting of not less than seven animals. The vehicle or test compound MD (25 mg/kg), NA (25 mg/kg), MASA (10 mg/kg), ASA (5 mg/kg) and combination MD+NA (25+25 mg/kg), MASA+NA (10+25 mg/kg) and ASA+NA (5+25 mg/kg) was administered by oral route 2 h before the initiation of thrombosis. Parallel experiments were conducted to compare the effects of a single dose of test substance (given 2 h before the initiation of thrombosis) and repeated doses (once daily for 3 days). […] Rats were anaesthetized with pentobarbital sodium (50 mg/kg, i.p. and 10 mg/kg/h) and were placed on a heat controlled operating table throughout the experiment to maintain a body temperature of 37° C. One of the carotid arteries was exposed by cervical incision, separated from the adherent tissue, vagus nerve, and a flow probe (electromagnetic blood flow meter MFV 1200, Nicon Kohden, Japan) was placed on the exposed segment of common carotid artery to record the blood flow. After a stabilization period of 15 min, thrombosis was induced by topically applying (in contact with the adventitial surface of vessel) two pieces (2×1 mm) of Whatman filter paper, soaked in 15% solution of FeCl3. Thrombosis time of carotid artery was recorded as time taken for the complete cessation of the blood flow and has been reported as time till occlusion (TTO).

tail bleeding = experiment: Tail bleeding time during thrombosis experiment; assay type: in vivo, rats; details: for Tail bleeding time, %: control = 100
Experimental: Additionally during the thrombosis experiment rat tail bleeding time was measured. The tail was transected 5 mm from the tip with scalpel and the tail was immediately immersed into 37° C. warm isotonic saline until termination of bleeding was noted. Termination of bleeding was defined as the time of complete stop of bleeding with no recurrence of bleeding within the next 30 s.

platelet aggregation [2] = experiment: Platelet aggregation ex vivo after 3 days treatment; assay type: in vivo, rats; details: 5 mg/kg/d p.o. 3 days
Experimental: Platelet aggregation was studied using whole blood impedance aggregometry on Multiplate (Multiple Platelet Function Analyzer, Dynabyte Medical, Germany) (Toth O et al, Thromb Haemost 2006; 96:781-788. […] Blood samples for in vitro experiment were collected from healthy donor B. […] In the ex vivo experiment blood was collected into plastic tubes covered with hirudin (Dynabyte Medical, Germany) from narcotized rats that were treated for 3 previous days with test substances p.o. The measurements were performed according to modified Dynabyte Medical protocol. […] After 5 min incubation and stirring at 37° C., measurements were initiated by adding of the appropriate agonist solution (sourced from Dynabyte Medical, Germany): After the thrombosis experiment the narcotized animals who received test substances for 3 days were used for platelet aggregation test ex vivo. […] Blood samples were used for measurement between 30 min and 4 h after collection. The measurements were performed according to modified Dynabyte Medical protocol (see above under Platelet aggregation).

platelet aggregation [3] = experiment: Platelet aggregation in vitro, whole blood impedance aggregometry (Multiplate); assay type: cell-based, healthy donor; details: 3 × 10^−4
Experimental: Platelet aggregation was studied using whole blood impedance aggregometry on Multiplate (Multiple Platelet Function Analyzer, Dynabyte Medical, Germany) (Toth O et al, Thromb Haemost 2006; 96:781-788. […] Blood samples for in vitro experiment were collected from healthy donor B. […] In the ex vivo experiment blood was collected into plastic tubes covered with hirudin (Dynabyte Medical, Germany) from narcotized rats that were treated for 3 previous days with test substances p.o. The measurements were performed according to modified Dynabyte Medical protocol. […] After 5 min incubation and stirring at 37° C., measurements were initiated by adding of the appropriate agonist solution (sourced from Dynabyte Medical, Germany): 1) adenosine diphosphate (ADP)-ADP-Test. ADP stimulates platelet activation by the ADP receptors (P2Y 12 and other). […] 3) ADP HS test (prostaglandin E1 in combination with ADP). […] Aggregation curves were recorded for 6 min. and analyzed using Dynabyte Medical software. We calculated the following parameters of platelet aggregation: […] It is affected by the total height of the aggregation curve as well as by its slope and is best suited to express the overall platelet activity.

[4] = Stability at ambient conditions
rat ear skin temperature = experiment: Ear skin temperature rise caused by NA, s.c. administration; assay type: in vivo, Wistar rats; details: LA 0.3 mg/kg s.c. alone
Experimental: Male Wistar rats (280-330 g) were used. Animals were held in groups of 6 in climatized rooms at 22±1° C., relative humidity 60±5%, and 12/12-hour light/dark cycle with free access to drinking water and feed (R3—Lactamin AB, Sweden). For registration of changes in skin temperature of intact rats contactless temperature recording method was used (Papaliodis D et al, Br J Pharmacol 2008; 153:1382-1387). Temperature measurements were performed with a hand-held infrared thermometer (Model Proscan 510, TFA-Dostman). Animals were habituated to handling and to the infrared probe for 3 days before use. Temperature readings from the dorsal side of each ear were recorded without anaesthesia at beginning and during experiment. The ear temperature was measured every 5 min. for a period of up to 60 min. The animals were returned to their cages between measurements. NA, MD and MASA were dissolved in saline and pH was corrected immediately before usage. LA (MK 0524, Cayman Chemicals) was first dissolved in DMSO and then freshly diluted with 0.9% NaCl, on each day of the experiment. The rate of NA and LA combination was based on Summary of Product Characteristics for Tredaptive™ (nicotinic acid/laropiprant) 1000 mg/20 mg modified-release tablets.
The influence of LA, MD or MASA alone on skin temperature was checked. Each investigated compound was introduced s.c. simultaneously with NA as LA+NA [0] or 30 min in advance to NA as LA+NA [30].

[5] = 5 mg/kg/d p.o., repeated, 3 days

**Q.** Which Time till occlusion ([1]; 5 mg/kg p.o., single dose 2 h before) does the source give for `COC(=O)[C@H](c1ccccc1Cl)N1CCc2sccc2C1` [CL, clopidogrel] here?
**A.** 31.7 ± 2.40^1 min

**Q.** What about the “Time till occlusion, %” value ([1]; 5 mg/kg p.o., single dose) of the same compound?
**A.** 130%

**Q.** And the Time till occlusion [1, 5]?
**A.** 49.1 ± 7.75^1 min

**Q.** And the “Time till occlusion, %” value [1, 5]?
**A.** 194%

**Q.** And the Tail bleeding time (tail bleeding; 5 mg/kg p.o., single dose)?
**A.** 11.9 ± 3.62 min

**Q.** And the “Tail bleeding time, %” value (tail bleeding; 5 mg/kg p.o., single dose)?
**A.** 134%

**Q.** What about the Tail bleeding time (tail bleeding; [5]) of the same compound?
**A.** 18.3 ± 3.78^1 min

**Q.** What about the “Tail bleeding time, %” value (tail bleeding; [5]) of the same compound?
**A.** 213%

**Q.** And the AUC (platelet aggregation [2]; AA induced)?
**A.** 905 ± 53.5^& AU*min

**Q.** What about the Amax (platelet aggregation [2]; AA induced) of the same compound?
**A.** 160.7 ± 13.5^&@ AU

**Q.** And the AUC (platelet aggregation [2]; ADP induced)?
**A.** 423 ± 39.4^2& AU*min

**Q.** What about the Amax (platelet aggregation [2]; ADP induced) of the same compound?
**A.** 68.2 ± 15.1^2& AU

**Q.** What about the AUC (platelet aggregation [2]; PGE1 + ADP induced) of the same compound?
**A.** 259 ± 49.3^2& AU*min

**Q.** What about the Amax (platelet aggregation [2]; PGE1 + ADP induced) of the same compound?
**A.** 49.7 ± 9.9^3&& AU

**Q.** What does the source list for `OCCN(CCO)c1nc(N2CCCCC2)c2nc(N(CCO)CCO)nc(N3CCCCC3)c2n1` [DI, dipyridamole]?
**A.** AUC (platelet aggregation [3]; AA induced): 1104 ± 45.5^&@@ AU*min; Amax (platelet aggregation [3]; AA induced): 173.9 ± 5.2^&@@ AU; AUC (platelet aggregation [3]; ADP induced): 665 ± 44.1^2& AU*min; Amax (platelet aggregation [3]; ADP induced): 111.1 ± 6.9^2& AU

**Q.** Which results are given for `CC(=O)Oc1ccccc1C(=O)[O-].C[N+](C)(C)CCCC(=O)O` [Example 1, 4-trimethylammoniobutanoate Acetylsalicylic Acid Addition Salt]?
**A.** solubility in water (in words) (Solubility in water): water soluble; stability (in words) [4]: stable at ambient conditions

**Q.** With `CS(=O)(=O)c1cc(F)cc2c3c(n(Cc4ccc(Cl)cc4)c12)[C@@H](CC(=O)O)CC3` [LA, laropiprant] as the compound, how does the Maximum temperature (rat ear skin temperature) read?
**A.** 29.5 ± 0.35^$$$ ° C.
